Reference: patent US10577378B2, “EIF4A-inhibiting compounds and methods related thereto” (eFFECTOR Therapeutics, Inc., priority 2015, dated 2020)
pIC50: −log10 of the molar value. Where a name gives a salt, the structure may show the parent alone. Read-outs that look alike come from different tables or passages of the source.

Tested on: MDA-MB-231 human breast cancer cells
Assay: Cell proliferation assay (CellTiter-Glo, 72 hours treatment)
Type: cell-based
Conditions: MDA-MB-231 cells, 72 hours at 37° C., CellTiter-Glo, read-out: MDA-MB-231 cell proliferation assay (IC50)
Method: Human tumor cell lines were cultured in the appropriate media (DMEM and RPMI) supplemented with penicillin G (100 U/ml), streptomycin (100 μg/ml), 10% FBS in a humidified atmosphere of 5% CO2 maintained at 37° C. Exponentially growing cells were seeded at 2,500 cells/well in 96 well plates prior to drug treatment. The following day, cells were treated with either DMSO (vehicle control) or eIF4A inhibitors at the appropriate dose for 72 hours at 37° C. Following compound treatment, cell proliferation was assessed by CellTiter-Glo assay (Promega, Madison Wis.) according to the manufacturer's protocol. Dose-response curves were fitted by non-linear regression (sigmoidal dose response model) using KaleidaGraph (Synergy Software, Reading Pa.) and IC50 values were calculated.
To this end, IC50 values of less than 100 nM are labelled as “+++”, from 100 nM to 1000 nM are labelled as “++”, and greater than 1000 nM are labelled as “+” (NA means “not available”).

Row | SMILES | pIC50 (Homo sapiens) | pIC50
1 | COc1nc(Cl)cc2c1[C@]1(O)[C@H](O)[C@H](CN3CCC34CC4(F)F)[C@@H](c3ccccc3)[C@]1(c1ccc(C#N)cc1)O2 (mixture of isomers) [222F, Rac-4-((5aR,6S,7S,8R,8aS)-3-chloro-7-((1,1-difluoro-4-azaspiro[2.3]hexan-4-yl)methyl)-8,8a-dihydroxy-1-methoxy-6-phenyl-6,7,8,8a-tetrahydro-5aH-cyclopenta[4,5]furo[3,2-c]pyridin-5a-yl)benzonitrile] | > 7.00 | 
2 | COc1nc(C#N)cc2c1[C@]1(O)[C@H](O)[C@H](CN3CCCC(F)(F)C3)[C@@H](c3ccccc3)[C@]1(c1ccc(C#N)cc1)O2 (racemic) [154F, Rac-(5aR,6S,7S,8R,8aS)-5a-(4-cyanophenyl)-7-((3,3-difluoropiperidin-1-yl)methyl)-8,8a-dihydroxy-1-methoxy-6-phenyl-5a,7,8,8a-tetrahydro-6H-cyclopenta[4,5]furo[3,2-c]pyridine-3-carbonitrile] | 6.00 to 7.00 | 
3 | COC(=O)[C@H]1[C@@H](O)[C@@]2(O)c3nn(C)cc3O[C@@]2(c2ccc(C#N)cc2)[C@@H]1c1ccccc1 (racemic) [21F, Rac-methyl (4aR,5S,6R,7R,7aS)-4a-(4-cyanophenyl)-7,7a-dihydroxy-2-methyl-5-phenyl-2,4a,5,6,7,7a-hexahydrocyclopenta[4,5]furo[3,2-c]pyrazole-6-carboxylate] | < 6.00 | 
4 | COc1cncc2c1[C@]1(O)[C@H](O)[C@H](C(=O)NC3CC3)[C@@H](c3ccccc3)[C@]1(c1ccc(Br)cc1)O2 (racemic) [89F, Rac-(4bS,5R,6R,7S,7aR)-7a-(4-bromophenyl)-N-cyclopropyl-4b,5-dihydroxy-4-methoxy-7-phenyl-4b,6,7,7a-tetrahydro-5H-cyclopenta[4,5]furo[2,3-c]pyridine-6-carboxamide] | > 7.00 | 
5 | COc1cncc2c1[C@]1(O)[C@@H](CN3CCN(C)CC3)[C@H](CO)[C@@H](c3ccccc3)[C@]1(c1ccc(C#N)cc1)O2 (racemic) [184F, Rac-4-((4bR,5R,6R,7S,7aR)-4b-hydroxy-6-(hydroxymethyl)-4-methoxy-5-((4-methyl-piperazin-1-yl)methyl)-7-phenyl-4b,5,6,7-tetrahydro-7aH-cyclopenta[4,5]furo[2,3-c]pyridin-7a-yl)benzonitrile] | > 7.00 | 
6 | COc1cncc2c1[C@]1(O)C(CN3CCOCC3)C[C@@H](c3ccccc3)[C@]1(c1ccc(C(F)(F)F)cc1)O2 (mixture of isomers) [289F, Rac-(4bR,7S,7aR)-4-methoxy-5-(morpholinomethyl)-7-phenyl-7a-(4-(trifluoromethyl)phenyl)-5,6,7,7a-tetrahydro-4bH-cyclopenta[4,5]furo[2,3-c]pyridin-4b-ol] | 6.00 to 7.00 | 
7 | CN(C)C(=O)[C@H]1[C@@H](O)[C@@]2(O)c3nc(C(F)(F)F)c(O)cc3O[C@@]2(c2ccc(C#N)cc2)[C@@H]1c1ccccc1 (racemic) [29F, Rac-(5aR,6S,7R,8R,8aS)-5a-(4-cyanophenyl)-3,8,8a-trihydroxy-N,N-dimethyl-6-phenyl-2-(trifluoromethyl)-5a,7,8,8a-tetrahydro-6H-cyclopenta[4,5]furo[3,2-b]pyridine-7-carboxamide] | < 6.00 | 
8 | COc1nc(Cl)cc2c1[C@]1(O)[C@H](O)[C@H](CN)[C@@H](c3ccccc3)[C@]1(c1ccc(C#N)cc1)O2 (racemic) [294F, Rac-4-((5aR,6S,7S,8R,8aS)-7-(aminomethyl)-3-chloro-8,8a-dihydroxy-1-methoxy-6-phenyl-6,7,8,8a-tetrahydro-5aH-cyclopenta[4,5]furo[3,2-c]pyridin-5a-yl)benzonitrile] | > 7.00 | 
9 | CNC[C@H]1[C@@H](O)[C@@]2(O)c3c(OC)cncc3O[C@@]2(c2ccc(C#N)cc2)[C@@H]1c1ccccc1 (racemic) [69F, Rac-4-((4bS,5R,6S,7S,7aR)-4b,5-dihydroxy-4-methoxy-6-((methylamino)methyl)-7-phenyl-4b,5,6,7-tetrahydro-7aH-cyclopenta[4,5]furo[2,3-c]pyridin-7a-yl)benzonitrile] | 6.00 to 7.00 | 
10 | CN(C)C[C@H]1[C@@H](C#N)[C@@]2(O)c3ncc(Cl)cc3O[C@@]2(c2ccc(C#N)cc2)[C@@H]1c1ccccc1 (racemic) [228F, Rac-(5aR,6S,7R,8S,8aR)-3-chloro-5a-(4-cyanophenyl)-7-((dimethylamino)methyl)-8a-hydroxy-6-phenyl-5a,7,8,8a-tetrahydro-6H-cyclopenta[4,5]furo[3,2-b]pyridine-8-carbonitrile] | < 6.00 | 
11 | NC(=S)[C@H]1[C@@H](O)[C@@]2(O)c3ncc(Cl)cc3O[C@@]2(c2ccc(Br)cc2)[C@@H]1c1ccccc1 (racemic) [28F, Rac-(5aR,6S,7R,8R,8aS)-5a-(4-bromophenyl)-3-chloro-8,8a-dihydroxy-6-phenyl-5a,7,8,8a-tetrahydro-6H-cyclopenta[4,5]furo[3,2-b]pyridine-7-carbothioamide] | 6.00 to 7.00 | 
12 | COCCN(C)C[C@H]1[C@@H](O)[C@@]2(O)c3c(OC)cncc3O[C@@]2(c2ccc(C#N)cc2)[C@@H]1c1ccccc1 (single isomer, unassigned) [261F] | > 7.00 | 
13 | COc1nc(C#N)cc2c1[C@]1(O)[C@H](O)[C@H](CN3CC(F)C3)[C@@H](c3ccccc3)[C@]1(c1ccc(C#N)cc1)O2 (racemic) [211Fa, Rac-(5aR,6S,7S,8R,8aS)-5a-(4-cyanophenyl)-7-((3-fluoroazetidin-1-yl)methyl)-8,8a-dihydroxy-1-methoxy-6-phenyl-5a,7,8,8a-tetrahydro-6H-cyclopenta[4,5]furo[3,2-c]pyridine-3-carbonitrile] | > 7.00 | 
14 | COc1cncc2c1[C@]1(O)[C@@H](CO)C[C@@H](c3ccccc3)[C@]1(c1ccc(CN)cc1)O2 (racemic) [234F, rac-(4bR,5R,7S,7aR)-7a-(4-(aminomethyl)phenyl)-5-(hydroxymethyl)-4-methoxy-7-phenyl-5,6,7,7a-tetrahydro-4bH-cyclopenta[4,5]furo[2,3-c]pyridin-4b-ol] | < 6.00 | 
15 | COc1nc(C#N)cc2c1[C@]1(O)[C@H](O)[C@H](CN3CC(F)(F)C3)[C@@H](c3ccccc3)[C@]1(c1ccc(C#N)cc1)O2 [288F, (5aR,6S,7S,8R,8aS)-5a-(4-cyanophenyl)-7-((3,3-difluoroazetidin-1-yl)methyl)-8,8a-dihydroxy-1-methoxy-6-phenyl-5a,7,8,8a-tetrahydro-6H-cyclopenta[4,5]furo[3,2-c]pyridine-3-carbonitrile] | > 7.00 | 
16 | COc1cncc2c1[C@]1(O)[C@H](O)[C@H](S(=O)(=O)c3ccccn3)[C@@H](c3ccccc3)[C@]1(c1ccc(C#N)cc1)O2 (racemic) [119F, Rac-4-((4bS,5S,6R,7S,7aR)-4b,5-dihydroxy-4-methoxy-7-phenyl-6-(pyridin-2-ylsulfonyl)-4b,5,6,7-tetrahydro-7aH-cyclopenta[4,5]furo[2,3-c]pyridin-7a-yl)benzonitrile] | 6.00 to 7.00 | 
17 | N#Cc1ccc([C@@]23Oc4cc(Cl)cnc4[C@]2(O)[C@H](O)[C@H](CO)[C@H]3c2ccccc2)cc1 (racemic) [56F, Rac-4-((5aR,6S,7S,8R,8aS)-3-chloro-8,8a-dihydroxy-7-(hydroxymethyl)-6-phenyl-6,7,8,8a-tetrahydro-5aH-cyclopenta[4,5]furo[3,2-b]pyridin-5a-yl)benzonitrile] | < 6.00 | 
18 | COc1cncc2c1[C@]1(O)[C@H](O)[C@H](C(=O)N3CCC(F)(F)C3)[C@@H](c3ccccc3)[C@]1(c1ccc(Br)cc1)O2 (racemic) [279F, Rac-((4bS,5R,6R,7S,7aR)-7a-(4-bromophenyl)-4b,5-dihydroxy-4-methoxy-7-phenyl-4b,6,7,7a-tetrahydro-5H-cyclopenta[4,5]furo[2,3-c]pyridin-6-yl)(3,3-difluoropyrrolidin-1-yl)methanone] | > 7.00 | 
19 | COc1cncc2c1[C@]1(O)[C@H](O)[C@H](CN(C)C(C)(C)C)[C@@H](c3ccccc3)[C@]1(c1ccc(C#N)cc1)O2 (single isomer, unassigned) [243F] | 6.00 to 7.00 | 
20 | CN(C)C[C@H]1[C@@H](O)[C@@]2(O)c3ncc(C#N)cc3O[C@@]2(c2ccc(C#N)cc2)[C@@H]1c1ccccc1 [105F] |  | < 6.00
21 | COc1cncc2c1[C@]1(O)[C@H](O)[C@H](CNC(C)(C)C)[C@@H](c3ccccc3)[C@]1(c1ccc(C#N)cc1)O2 (single isomer, unassigned) [290F] | 6.00 to 7.00 | 
22 | COCCNC[C@H]1[C@@H](O)[C@@]2(O)c3c(OC)cncc3O[C@@]2(c2ccc(C#N)cc2)[C@@H]1c1ccccc1 [263F, 4-((4bS,5R,6S,7S,7aR)-4b,5-dihydroxy-4-methoxy-6-(((2-methoxyethyl)amino)methyl)-7-phenyl-4b,5,6,7-tetrahydro-7aH-cyclopenta[4,5]furo[2,3-c]pyridin-7a-yl)benzonitrile hydrochloride] | > 7.00 | 
23 | N#Cc1ccc([C@@]23Oc4cc(Cl)cnc4[C@]2(O)[C@H](CO)C[C@H]3c2ccccc2)cc1 (racemic) [168F, Rac-4-((5aR,6S,8S,8aR)-3-chloro-8a-hydroxy-8-(hydroxymethyl)-6-phenyl-6,7,8,8a-tetrahydro-5aH-cyclopenta[4,5]furo[3,2-b]pyridin-5a-yl)benzonitrile] | < 6.00 | 
24 | CS(=O)(=O)[C@H]1[C@@H](O)[C@@]2(O)c3ncc(C#N)cc3O[C@@]2(c2ccc(C#N)cc2)[C@@H]1c1ccccc1 [86F, (5aR,6S,7R,8S,8aS)-5a-(4-cyanophenyl)-8,8a-dihydroxy-7-(methylsulfonyl)-6-phenyl-5a,7,8,8a-tetrahydro-6H-cyclopenta[4,5]furo[3,2-b]pyridine-3-carbonitrile] | < 6.00 | 
25 | COc1cncc2c1[C@]1(O)[C@H](O)[C@H](CNCC(C)(C)O)[C@@H](c3ccccc3)[C@]1(c1ccc(C#N)cc1)O2 (single isomer, unassigned) [254F] | > 7.00 | 
